# Test results reported in patent US12570655B2, “Cysteine covalent modifiers of AKT1 and uses thereof” (Terremoto Biosciences, Inc., priority 2023, dated 2026).
# Like-named read-outs stand apart in the source and are kept apart here.
# What was measured:
# Type in all cases: cell-based
# [1] = system: LAPC4 prostate cancer cells; test: Antiproliferative effects in LAPC4 cells (CellTiter Glo); settings: LAPC4 cells (AKT1 E17K allele), read-out: LAPC4 proliferation IC50
# Method in brief: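 Cells grown in IMDM supplemented with 12% FBS plus 1% P/S were treated for 72 h with DMSO-dissolved compounds. ATP-based luminescence was fitted to a log(inhibitor) versus response Hill model, giving IC50.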
# [2] = biological target: T1, AKT1 E17K (Homo sapiens, UniProt P31749, E17K); test: Live cell AKT1 E17K target engagement by NanoBRET competitive probe displacement; settings: HEK293 cells transfected with kinase-NanoLuciferase fusion, 2 h at 37° C.
# T1 construct: expressed in transfected cells; host or cells: HEK293
# Method in brief: (§1)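 Live-cell competitive tracer displacement in HEK293 expressing NanoLuciferase-tagged kinase. Compound and ATP-competitive tracer (~EC50) are co-incubated 2 h at 37 °C; BRET (E600/E460) gives IC50.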
# [3] = biological target: T2, AKT2 (Homo sapiens, UniProt P31751); test: Live cell AKT2 target engagement by NanoBRET competitive probe displacement; settings: HEK293 cells transfected with kinase-NanoLuciferase fusion, 2 h at 37° C.
# T2 construct: expressed in transfected cells; host or cells: HEK293
# Method in brief: as §1
# [4] = biological target: T3, AKT1 WT (Homo sapiens, UniProt P31749); test: Live cell AKT1 WT target engagement by NanoBRET competitive probe displacement; settings: HEK293 cells transfected with kinase-NanoLuciferase fusion, 2 h at 37° C.
# T3 construct: expressed in transfected cells; host or cells: HEK293
# Method in brief: as §1
# T1 sequence (P31749 whole entry E17K, the tested form may be a part): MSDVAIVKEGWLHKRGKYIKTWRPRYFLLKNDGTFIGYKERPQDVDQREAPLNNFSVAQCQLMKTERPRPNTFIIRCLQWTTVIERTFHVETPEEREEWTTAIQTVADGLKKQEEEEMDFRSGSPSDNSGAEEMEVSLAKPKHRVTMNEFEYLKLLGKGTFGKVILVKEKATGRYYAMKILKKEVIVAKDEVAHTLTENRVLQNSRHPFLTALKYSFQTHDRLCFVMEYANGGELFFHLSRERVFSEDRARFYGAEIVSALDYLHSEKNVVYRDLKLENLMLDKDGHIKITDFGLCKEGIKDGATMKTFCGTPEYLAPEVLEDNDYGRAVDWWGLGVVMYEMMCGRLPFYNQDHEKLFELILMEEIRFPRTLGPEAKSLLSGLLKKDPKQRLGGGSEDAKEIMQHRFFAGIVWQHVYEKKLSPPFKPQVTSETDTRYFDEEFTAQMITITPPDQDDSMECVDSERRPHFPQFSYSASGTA
# T2 sequence (P31751 whole entry, the tested form may be a part): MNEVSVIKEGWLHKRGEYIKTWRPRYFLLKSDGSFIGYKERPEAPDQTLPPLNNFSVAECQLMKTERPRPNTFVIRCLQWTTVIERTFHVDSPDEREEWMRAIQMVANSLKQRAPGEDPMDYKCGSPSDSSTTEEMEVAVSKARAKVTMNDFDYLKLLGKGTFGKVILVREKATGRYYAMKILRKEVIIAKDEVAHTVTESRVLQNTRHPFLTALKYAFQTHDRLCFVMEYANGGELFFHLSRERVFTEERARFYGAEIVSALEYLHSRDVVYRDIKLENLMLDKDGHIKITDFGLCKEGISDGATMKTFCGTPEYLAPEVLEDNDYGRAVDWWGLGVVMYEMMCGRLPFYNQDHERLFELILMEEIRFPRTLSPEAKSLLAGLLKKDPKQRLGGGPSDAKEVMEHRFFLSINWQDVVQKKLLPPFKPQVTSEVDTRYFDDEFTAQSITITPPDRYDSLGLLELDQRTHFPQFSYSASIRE
# T3 sequence (P31749 whole entry, the tested form may be a part): as the sequence (P31749 whole entry E17K, the tested form may be a part) above, with K17E counted along it
IC50 ([1]; 72 h) [nM],IC50 [2] [nM],IC50 [3] [nM],IC50 [4] [nM],"IC50 ([1]; Homo sapiens, LAPC4, 72 h) [nM]",SMILES
641,11.6,36.2,264,,"C=CC(=O)N1CCC(N[C@@H]2c3ccc(-n4c(-c5cccnc5N)nc5ccc(-n6cccn6)nc54)cc3CC2F)CC1C(F)F (single isomer, unassigned) [Example 304, 1-((2*,4*)-4-(((1R,2*)-5-(2-(2-aminopyridin-3-yl)-5-(1H-pyrazol-1-yl)-3H-imidazo[4,5-b]pyridin-3-yl)-2-fluoro-2,3-dihydro-1H-inden-1-yl)amino)-2-(difluoromethyl)piperidin-1-yl)prop-2-en-1-one]"
345,12.3,106,294,,"C=CC(=O)N1CCC(N[C@H]2CCc3cc(-n4c(-c5cccnc5N)nc5ccc(-n6cccn6)nc54)ccc32)C(C)(F)C1 (single isomer, unassigned) [Example 307, 1-((3*,4*)-4-(((S)-5-(2-(2-aminopyridin-3-yl)-5-(1H-pyrazol-1-yl)-3H-imidazo[4,5-b]pyridin-3-yl)-2,3-dihydro-1H-inden-1-yl)amino)-3-fluoro-3-methylpiperidin-1-yl)prop-2-en-1-one]"
110,8.12,22.4,146,,"C=CC(=O)N1CCC(N[C@H]2CCc3cc(-n4c(-c5cccnc5N)nc5ccc(-n6cccn6)nc54)ccc32)C(C)(F)C1 (single isomer, unassigned) [Example 309, 1-((3*,4*)-4-(((S)-5-(2-(2-aminopyridin-3-yl)-5-(1H-pyrazol-1-yl)-3H-imidazo[4,5-b]pyridin-3-yl)-2,3-dihydro-1H-inden-1-yl)amino)-3-fluoro-3-methylpiperidin-1-yl)prop-2-en-1-one]"
,34.9,246,1190,496,"C=CC(=O)N1CCC(N[C@@H]2c3ccc(-n4c(-c5cccnc5N)nc5ccc(-n6ccc(C#N)n6)nc54)cc3CC2F)CC1 (single isomer, unassigned) [Example 311, 1-(3-((1R,2*)-1-((1-acryloylpiperidin-4-yl)amino)-2-fluoro-2,3-dihydro-1H-inden-5-yl)-2-(2-aminopyridin-3-yl)-3H-imidazo[4,5-b]pyridin-5-yl)-1H-pyrazole-3-carbonitrile]"
440,11.6,102,652,,"C=CC(=O)N1CCC(N[C@@H]2c3ccc(-n4c(-c5cccnc5N)nc5ccc(-n6ccc(C#N)n6)nc54)cc3CC2F)CC1 (single isomer, unassigned) [Example 312, 1-(3-((1R,2*)-1-((1-acryloylpiperidin-4-yl)amino)-2-fluoro-2,3-dihydro-1H-inden-5-yl)-2-(2-aminopyridin-3-yl)-3H-imidazo[4,5-b]pyridin-5-yl)-1H-pyrazole-3-carbonitrile]"
464,20.3,68.4,2590,,"C=CC(=O)N1CCC(N[C@@H]2c3ccc(-n4c(-c5ccccc5F)nc5ccc(-n6cccn6)nc54)cc3CC2F)C[C@H]1C (single isomer, unassigned) [Example 317, 1-((2R,4*)-4-(((1R,2*)-2-fluoro-5-(2-(2-fluorophenyl)-5-(1H-pyrazol-1-yl)-3H-imidazo[4,5-b]pyridin-3-yl)-2,3-dihydro-1H-inden-1-yl)amino)-2-methylpiperidin-1-yl)prop-2-en-1-one]"
,12.2,35,11.7,25.4,"C=CC(=O)Nc1ccccc1C(=O)N[C@H]1CCc2cc(-n3c(-c4cccnc4N)nc4ccc(-n5cccn5)nc43)ccc21 [Example 1, (S)-2-acrylamido-N-(5-(2-(2-aminopyridin-3-yl)-5-(1H-pyrazol-1-yl)-3H-imidazo[4,5-b]pyridin-3-yl)-2,3-dihydro-1H-inden-1-yl)benzamide]"
